The results in this text go back to patent US7795312B2, “Method for treating abdominal discomfort” (Sucampo AG, priority 2002, dated 2010).

SMILES strings stand for the structures.

What all share (type): in vivo, human
Experiment [1] deals with patients with irritable bowel syndrome (IBS). Briefly: Abdominal discomfort score in patients with irritable bowel syndrome. The settings on record: for Abdominal discomfort score, Mean ± SD: IBS patients. As for the experimental part: (§1) Patients with irritable bowel syndrome (IBS) were randomly allocated to the following two treatment groups. • Group 1: Test substance (13,14-dihydro-15-keto-16,16-difluoro-PGE1) 48 μg total (24 μg/breakfast+24 μg/dinner) • Group 2: Matching placebo (placebo/breakfast+placebo/dinner)
Each group underwent two weeks washout period and then began to administer oral test substance (capsules) or placebo (capsules) daily for 4 weeks. Test substance or placebo was taken two times a day (b.i.d) at breakfast with food and at least 8 ounces of water and at dinner with food and at least 8 ounces of water. Patients were asked to evaluate abdominal discomfort upon waking in the morning, using a 5-point scale (Score: 0=absent, 1=mild, 2=moderate, 3=severe, 4=very severe) at 4 weeks after the initiation of the treatments.

For experiment [2], the system named is patients with occasional constipation. Kind of experiment: Abdominal discomfort score in patients with occasional constipation. Conditions: for Abdominal discomfort score, Mean ± SD: patients with constipation, oral capsules 48 μg total daily (24 μg b.i.d.), 5-point scale 0-4, p < 0.05 vs placebo. As for the experimental part:
Patients with occasional constipation were randomly allocated to the following two treatment groups. • Group 1: Test substance (13,14-dihydro-15-keto-16,16-difluoro-PGE1) 48 μg total (24 μg/breakfast+24 μg/dinner) • Group 2: Matching placebo (placebo/breakfast+placebo/dinner) Each group underwent two weeks washout period and then began to administer oral test substance (capsules) or placebo (capsules) daily for 4 weeks. During the washout period, the patient's bowel habit was documented to confirm the existence of constipation. Constipation is defined as, on average, less than three spontaneous bowel movements per week. All existing laxative medication was withdrawn at the start of the washout period and the patients were instructed not to change their diet or lifestyle during the study.
Test substance or placebo was taken orally for a total treatment period of 4 weeks; it was taken two times a day (b.i.d) at breakfast with food and at least 8 ounces of water and at dinner with food and at least 8 ounces of water. […]

Experiment [3] has as its system patients with irritable bowel syndrome (IBS). Briefly: Abdominal bloating score in patients with irritable bowel syndrome. Conditions: for Abdominal bloating score, Mean ± SD: IBS patients. How it is done:
as §1
Each group underwent two weeks washout period and then began to administer oral test substance (capsules) or placebo (capsules) daily for 4 weeks. Test substance or placebo was taken two times a day (b.i.d) at breakfast with food and at least 8 ounces of water and at dinner with food and at least 8 ounces of water. The patients were asked to evaluate abdominal bloating upon waking in the morning, using a 5-point scale (Score: 0=absent, 1=mild, 2=moderate, 3=severe, 4=very severe) at 4 weeks after the initiation of the treatments.

For experiment [4], the system named is patients with irritable bowel syndrome (IBS) exhibiting dyschezia. Kind of experiment: Spontaneous bowel movement frequency in patients with IBS exhibiting dyschezia. Conditions: for Spontaneous Bowel Movement Frequency Rates, Mean ± SD: IBS patients exhibiting dyschezia. How it is done:
Each group underwent two weeks washout period and then began to administer oral test substance (capsules) or placebo (capsules) daily for 4 weeks. Test substance or placebo was taken two times a day (b.i.d) at breakfast with food and at least 8 ounces of water and at dinner with food and at least 8 ounces of water. After 3 consecutive days of not having spontaneous bowel movement, the investigator could prescribe to the patient 10 mg bisacodyl suppository as a rescue medication. If this was not effective, Fleet® enema could be used. During the study period, each patient documented bowel activity. A spontaneous bowel movement was defined as any bowel movement except for that occurred within 24 hours after the rescue medication. Frequency of spontaneous bowel movements at Baseline, Weeks 1, 2, 3 and 4 were analyzed.

The mark [5] stands for this setting: Baseline, 5-point scale 0=absent to 4=very severe.
Setting [6] is: Week 4, oral capsules 48 μg total daily (24 μg b.i.d.), 5-point scale 0-4, p < 0.01 vs placebo.
Where [7] appears, read: oral 48 μg total daily for 4 weeks.

Regarding `CCCCC(F)(F)C(=O)CCC1C(O)CC(=O)C1CCCCCCC(=O)O` (stereo not shown) [Test Substance, 13,14-dihydro-15-keto-16,16-difluoro-PGE1], the “Abdominal discomfort score, Mean ± SD” value in experiment [1] (setting [5]) was 2.25 ± 0.803; in experiment [1] (setting [6]) it was 1.48 ± 1.029; in experiment [2] (Week 2), 1.09 ± 1.047 (116); in experiment [2] (Week 3) it was 1.27 ± 1.057 (117); in experiment [2] (Week 4), 1.22 ± 1.060 (117). In experiment [1] (setting [7]), the “Effect on abdominal discomfort in patients with IBS” value is on record as “significantly improved the abdominal discomfort”. Also, in experiment [2] (setting [7]), the “Effect on abdominal discomfort in patients with constipation” value was “significantly improved the abdominal discomfort”. For the same compound, the “Abdominal bloating score, Mean ± SD” value in experiment [3] (setting [5]) was 2.50 ± 0.916 (32); in experiment [3] (setting [6]) it was 1.74 ± 0.999 (31). Besides, the “Effect on abdominal bloating in patients with IBS” value in experiment [3] (setting [7]) was “significantly improved the abdominal bloating”. Besides, the “Spontaneous Bowel Movement Frequency Rates, Mean ± SD” value in experiment [4] (Baseline) is recorded as 1.43 ± 0.773 (32); in experiment [4] (Week 1, oral capsules 48 μg total daily (24 μg b.i.d.), p < 0.01 vs placebo), 6.50 ± 4.108 (32); in experiment [4] (Week 2, oral capsules 48 μg total daily (24 μg b.i.d.), p < 0.01 vs placebo) it was 5.58 ± 4.003 (32); in experiment [4] (Week 3, oral capsules 48 μg total daily (24 μg b.i.d.), p < 0.01 vs placebo), 5.93 ± 4.775 (32); in experiment [4] (Week 4, oral capsules 48 μg total daily (24 μg b.i.d.), p < 0.05 vs placebo), 5.17 ± 4.333 (32). The “Effect on spontaneous bowel movement frequency in patients with IBS exhibiting dyschezia” value in experiment [4] (setting [7]) is “significantly improved the spontaneous bowel movement frequency”.
